Measured values from patent US9775903B2, “1-deoxy analogs of 1,25-dihydroxyvitamin D3 compounds” (JOHNS HOPKINS UNIVERSITY, priority 2010, dated 2017).

Legend:
[1] = system: CYP24 expression in PMA-stimulated U937 cells; assay: CYP24 expression in PMA-stimulated U937 cells, which do not substantially express CYP27B1; assay type: cell-based, human; conditions: concentrations up to 100 nM, 6 hr
Procedure: PMA-stimulated U937 cells were maintained in RPMI media supplemented with 10 mM HEPES, 1 mM sodium pyruvate, 0.1 mM non-essential amino acids and 10% Fetal Bovine Serum at optimal cell density (between 1×10^5 cells/mL and 2×10^6 cells/mL). Prior to treatment, cells were pelleted by centrifugation and resuspended to a concentration of 5×10^5 cells/mL. Cells were then treated with phorbol myristate acetate (PMA) at a final concentration of 20 ng/ml. To each well of a 24-well plate, 1 ml of cell suspension was added, which was incubated overnight at 37° C.+5% CO2. The following day, RPMI media was replaced with fresh media and cells were treated in triplicate with vehicle or compounds at various concentrations (10^-7 to 10^-9 M) for 6 hr at 37° C. Media was removed and extraction of cellular RNA was performed using Trizol® (Invitrogen). Aliquots of RNA were reverse-transcribed to cDNA using oligo dT primers and Thermoscript reverse transcriptase according to the manufacturer's instructions (Invitrogen). Quantitative real-time PCR was performed using an ABI StepOnePlus system using the Taqman Universal PCR Master Mix. PCR reaction volumes of 20 μl were used with 50 cycles of amplification. Each cDNA sample was tested in duplicate using TaqMan® gene expression assays with the following ID numbers: human GAPDH (Hs99999905_m1), human CYP24 (Hs00167999_m1). The real-time PCR results were analyzed using the StepOne system software V2.1. Gene expression levels were calculated using the comparative CT method, and normalized to the GAPDH expression levels. The U937 cells have a low level of expression of CYP27B1 mRNA, for example compared to HPK1a-ras cells.

CYP24 = biological target: T1, CYP24 (Homo sapiens, UniProt Q07973); assay: CYP24 inhibitory activity: CYP24a1 transcription in HPK1a-ras cells treated with calcitriol plus test compound; assay type: cell-based; conditions: 1 μM analog with 0.1 nM or 1 nM calcitriol, 6 hours
T1 construct: CYP24a1 relative transcription in HPK1a-ras cells treated for 6 hours with calcitriol; endogenous in cells; host or cells: HPK1a-ras cells
T1 sequence (Q07973 36-514): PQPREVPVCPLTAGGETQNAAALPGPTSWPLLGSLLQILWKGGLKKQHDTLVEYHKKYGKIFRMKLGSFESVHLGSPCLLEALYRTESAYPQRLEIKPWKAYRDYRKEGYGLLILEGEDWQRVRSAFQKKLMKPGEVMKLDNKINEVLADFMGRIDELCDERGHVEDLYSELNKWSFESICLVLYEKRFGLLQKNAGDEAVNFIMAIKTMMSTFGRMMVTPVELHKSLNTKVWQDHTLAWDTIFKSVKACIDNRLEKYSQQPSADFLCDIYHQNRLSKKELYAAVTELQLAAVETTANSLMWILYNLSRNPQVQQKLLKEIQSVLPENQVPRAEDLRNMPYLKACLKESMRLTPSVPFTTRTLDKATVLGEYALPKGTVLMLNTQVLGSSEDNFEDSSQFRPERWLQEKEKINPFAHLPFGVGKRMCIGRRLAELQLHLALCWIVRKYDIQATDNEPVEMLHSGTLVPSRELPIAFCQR
Procedure: CYP24a1 transcription activity in HPK1a-ras cells was determined for prodrugs Iaii and IIaii. As with the protocol described in Example 7, HPK1a-ras cells were maintained in Dulbecco's Modified Eagle's medium (DMEM) supplemented with 10% Fetal Bovine Serum and plated at 1×10^5 cells/well in 24-well plates. Prior to treatment with compounds, cells were washed with PBS and replaced with DMEM containing 1% Bovine Serum Albumin. Cells were treated in duplicate with vehicle or compounds at various concentrations (10^-6 to 10^-9 M) for 6 hr at 37° C. Media was removed and extraction of cellular RNA was performed using Trizol® (Invitrogen). […] Quantitative real-time PCR was performed using an ABI StepOnePlus system using the Taqman Universal PCR Master Mix. […] The real-time PCR results were analyzed using the StepOne system software V2.1. Gene expression levels were calculated using the comparative CT method, and normalized to the GAPDH expression levels
Transcriptional activity of calcitriol and Prodrugs was determined by CYP24a1 relative transcription in HPK1a-ras cells treated for 6 hours with calcitriol, combinations of calcitriol with Prodrugs Icii, Idii, and Ieii, and combinations of calcitriol with 1-hydroxylated active forms of Prodrugs Icii, Idii, and Ieii which are known CYP24 inhibitors.

VDR [2] = biological target: T2, VDR (Homo sapiens, UniProt P11473); assay: Binding to the Vitamin D Receptor (competition with [26,27-methyl-3H]-1α,25(OH)2D3)
T2 sequence (P11473 1-427): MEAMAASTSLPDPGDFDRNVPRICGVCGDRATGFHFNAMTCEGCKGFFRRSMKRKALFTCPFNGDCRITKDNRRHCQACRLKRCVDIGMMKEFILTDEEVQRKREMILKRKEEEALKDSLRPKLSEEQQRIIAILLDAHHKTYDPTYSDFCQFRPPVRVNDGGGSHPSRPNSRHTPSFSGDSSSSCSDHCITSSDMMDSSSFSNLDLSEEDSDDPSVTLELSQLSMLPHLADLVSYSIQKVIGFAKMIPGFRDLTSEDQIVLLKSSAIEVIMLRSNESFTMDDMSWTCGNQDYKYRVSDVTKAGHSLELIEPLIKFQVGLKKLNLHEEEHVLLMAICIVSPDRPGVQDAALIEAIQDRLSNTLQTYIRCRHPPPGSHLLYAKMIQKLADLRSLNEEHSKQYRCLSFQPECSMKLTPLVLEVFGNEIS
Procedure: Unbound radioactive ligand was removed by incubation with dextran-charcoal for 30 min on ice and pelleted by centrifugation at 2000 rpm for 10 min at 4° C. The radioactivity in 100 mL of the supernatant was measured using a scintillation counter. The control reactions contained either no VDR protein (background) or no competing ligand (maximum binding). The mean background binding was subtracted and the data divided by the mean maximum binding to yield B/Bmax values. The concentration necessary to displace 50% of [26,27-methyl-^3H]-1α,25(OH)2D3 from VDR was calculated as the B50.

[3] = system: CYP24 transcription in HPK1a-ras cells; assay: CYP24 transcription in HPK1a-ras cells (real-time PCR); assay type: cell-based, human; conditions: for concentration at which significant transcriptional activity (CYP24) is displayed / CYP24 transcription activity (in words): HPK1a-ras cells; for concentration at which significant transcriptional activity (CYP24) is displayed: 6 hr; for CYP24 transcription activity (in words): which express CYP27B1; for induction of CYP24 transcription compared to vehicle: 6 or 7 hours
Procedure: (§1) HPK1a-ras cells were maintained in Dulbecco's Modified Eagle's medium (DMEM) supplemented with 10% Fetal Bovine Serum and plated at 1×10^5 cells/well in 24-well plates. The media was exchanged after 24 hours for DMEM containing 1% Bovine Serum Albumin. Cells were treated in duplicate with Ibii and control compounds at various concentrations (10^−6 to 10^−9M) for 6 or 7 hours. Extraction of cellular RNA was performed using Trizol® (Invitrogen). Aliquots of RNA were reverse-transcribed to cDNA using random hexamers and Thermoscript reverse transcriptase according to the manufacturer's instructions (Invitrogen). Quantitative real-time PCR was performed using an ABI StepOnePlus system using the Taqman Universal PCR Master Mix. PCR reaction volumes of 20 μL were used with 50 cycles of amplification. Each cDNA sample was tested in duplicate using TaqMan® gene expression assays with the following ID numbers: human GAPDH (Hs99999905_m1), human CYP24 (Hs00167999_m1). The real-time PCR results were analyzed using the StepOne system software V2.1. Gene expression levels were calculated using the comparative CT method, and normalized to the GAPDH expression levels.
CYP24a1 transcription activity in HPK1a-ras cells was determined for prodrugs Iaii and IIaii. As with the protocol described in Example 7, HPK1a-ras cells were maintained in Dulbecco's Modified Eagle's medium (DMEM) supplemented with 10% Fetal Bovine Serum and plated at 1×10^5 cells/well in 24-well plates. Prior to treatment with compounds, cells were washed with PBS and replaced with DMEM containing 1% Bovine Serum Albumin. Cells were treated in duplicate with vehicle or compounds at various concentrations (10^-6 to 10^-9 M) for 6 hr at 37° C. Media was removed and extraction of cellular RNA was performed using Trizol® (Invitrogen). Aliquots of RNA were reverse-transcribed to cDNA using oligo dT primers and Thermoscript reverse transcriptase according to the manufacturer's instructions (Invitrogen). Quantitative real-time PCR was performed using an ABI StepOnePlus system using the Taqman Universal PCR Master Mix. PCR reaction volumes of 20 μl were used with 50 cycles of amplification. Each cDNA sample was tested in duplicate using TaqMan® gene expression assays with the following ID numbers: human GAPDH (Hs99999905_m1), human CYP24 (Hs00167999_m1). The real-time PCR results were analyzed using the StepOne system software V2.1. Gene expression levels were calculated using the comparative CT method, and normalized to the GAPDH expression levels

VDR [4] = biological target: T2, VDR; conditions: relative to active Vitamin D hormones / 1,25-hydroxyvitamin D3; cited from earlier work
PTH [5] = assay: Serum PTH in adenine-induced uremic rats; assay type: in vivo, male Sprague-Dawley rats; conditions: adenine treated rats
Text: (§2) Day 0 is the first day of dosing.

FGF23 = assay: Serum FGF23 in adenine-induced uremic rats; assay type: in vivo, male Sprague-Dawley rats; conditions: adenine treated rats, i.v. 0.2-10 mcg/kg, three times per week for two weeks
Text: as §2

[6] = Body weight in vitamin D deficient rats; assay type: in vivo, Sprague Dawley rats; conditions: IV and oral, 160 μg/kg
Procedure: (§3) Vitamin D deficient Sprague Dawley rats were treated with Ibii 3×/week for five days by IV and oral routes, according to the Table below: […]

[7] = system: CYP27b1 transcription in HPK1a-ras cells; assay: CYP27b1 transcription in HPK1a-ras cells (real-time PCR); assay type: cell-based, human
Procedure: as §1, with “duplicate.” for “duplicate using TaqMan® gene expression assays with the following ID numbers: human GAPDH (Hs99999905_m1), human CYP24 (Hs00167999_m1).”

PTH [8] = assay: PTH in vitamin D deficient rats, IV and oral dosing; assay type: in vivo, Sprague Dawley rats; conditions: 160 μg/kg, 3×/week for five days
Procedure: as §3

| Compound | relative CYP24 expression (compared to calcitriol) [1] | CYP24 inhibitory effect (increased CYP24a1 transcription with calcitriol) (CYP24) | binding to the VDR (in words) (VDR [2]) | concentration at which significant transcriptional activity (CYP24) is displayed [3] | CYP24 transcription activity (in words) [3] | further results |
| --- | --- | --- | --- | --- | --- | --- |
| C=C1CCC(O)CC1=CC=C1CCCC2(C)C1CCC2C(C)CCCS(=N)(=O)c1ccccc1 (stereo not drawn) [Prodrug Icii, 3-{2-[1-(4-Benzenesulfoximine-1-methyl-butyl)-7α-methyl-octahydro-inden-4-ylidene]-ethylidene}-4-methylene-cyclohexanol] | inactive | CYP24 inhibitory effect | – | – | – | – |
| C=C1CCC(O)CC1=CC=C1CCCC2(C)C1CCC2C(C)CCS(=O)(=O)c1ccccc1 (stereo not drawn) [Prodrug Idii, 3-{2-[1-(3-Benzenesulfonyl-1-methyl-propyl)-7α-methyl-octahydro-inden-4-ylidene]-ethylidene}-4-methylene-cyclohexanol] | inactive | CYP24 inhibitory effect | – | – | – | – |
| C=C1CCC(O)CC1=CC=C1CCCC2(C)C1CCC2C(C)CCC(F)(F)S(=O)(=O)C(C)(C)C (stereo not drawn) [Prodrug Iaii, 3-(2-{1-[4,4-Difluoro-1-methyl-4-(2-methyl-propane-2-sulfonyl)-butyl]-7α-methyl-3,3α,5,6,7,7a-hexahydro-inden-4-ylidene}-ethylidene)-4-methylene-cyclohexanol] | inactive | – | do not bind to the VDR | 1000 nM | active | – |
| C=C1CC[C@H](O)C/C1=C/C=C1\CCC[C@]2(C)C([C@H](C)CCCC(C)(C)O)CC[C@@H]12 (stereo partly drawn) [25-hydroxyvitamin D3] | – | – | – | – | – | affinity for the VDR, fold lower than the active Vitamin D hormone (VDR [4]): 100 fold |
| C=CCO/N=C(\CCC[C@@H](C)C1=CC[C@H]2/C(=C/C=C3/C[C@@H](O)CCC3=C)CCC[C@]12C)C(C)(C)C [Prodrug IIaii, 7-{4-[2-(5-Hydroxy-2-methylene-cyclohexylidene)-ethylidene]-7α-methyl-3α,4,5,6,7,7a-hexahydro-3H-inden-1-yl}-2,2-dimethyl-octan-3-one 0-allyl-oxime] | inactive | – | do not bind to the VDR | 1000 nM | active | – |
| C=C1CCC(O)CC1=CC=C1CCCC2(C)C(C(C)CC=CS(=O)(=O)C(C)(C)C)=CCC12 (stereo not drawn) [Prodrug Ibii, 4-Methylene-3-(2-{7α-methyl-1-[1-methyl-4-(2-methyl-propane-2-sulfonyl)-but-3-enyl]-3,3α,5,6,7,7a-hexahydro-inden-4-ylidene}-ethylidene)-cyclohexanol] | inactive | – | – | 100 nM | – | potency in decreasing circulating iPTH levels versus the 1-hydroxy active form (PTH [5]; i.v.): comparable to but lower than the 1-hydroxy active form; circulating iPTH levels in serum (PTH [5]; i.v. 0.2-10 mcg/kg, three times per week for two weeks): can lower circulating iPTH levels; effect on serum FGF23 levels (FGF23): does not increase serum FGF23 levels; effects on body weight (overt toxicity) [6]: does not exhibit overt toxicity; transcription of CYP27b1 compared to vehicle [7]: not significantly affected; IC50 (VDR [2]; read-out: B50 (concentration necessary to displace 50% of [26,27-methyl-3H]-1α,25(OH)2D3 from VDR), in vitro, human recombinant VDR): > 1 µM; effect on PTH (PTH [8]; intravenous): can effectively lower PTH; effect on PTH (PTH [8]; oral): can effectively lower PTH; induction of CYP24 transcription compared to vehicle ([3]; 100 nM, HPK1aRas cells): about 100 fold; induction of CYP24 transcription compared to vehicle ([3]; 1 μM, HPK1aRas cells): about 500 fold; potency in CYP24 transcription relative to its 1-hydroxylated analog ([3]; HPK1aRas cells): about 1/100; induction of CYP24A1 transcription at lower concentrations ([3]; concentrations below 100 nM, HPK1aRas cells): did not significantly induce |
